≈ marks a conversion by molar mass, not a printed value.
Columns and labels:
[1] = target: T1, Cytochrome P450 4F2 (Homo sapiens, UniProt P78329); assay: Inhibition of recombinant CYP4F2 (unknown origin) incubated for 5 to 15 mins in presence of NADPH by LC-MS/MS analysis; format: ADME
T1 sequence (P78329 whole entry): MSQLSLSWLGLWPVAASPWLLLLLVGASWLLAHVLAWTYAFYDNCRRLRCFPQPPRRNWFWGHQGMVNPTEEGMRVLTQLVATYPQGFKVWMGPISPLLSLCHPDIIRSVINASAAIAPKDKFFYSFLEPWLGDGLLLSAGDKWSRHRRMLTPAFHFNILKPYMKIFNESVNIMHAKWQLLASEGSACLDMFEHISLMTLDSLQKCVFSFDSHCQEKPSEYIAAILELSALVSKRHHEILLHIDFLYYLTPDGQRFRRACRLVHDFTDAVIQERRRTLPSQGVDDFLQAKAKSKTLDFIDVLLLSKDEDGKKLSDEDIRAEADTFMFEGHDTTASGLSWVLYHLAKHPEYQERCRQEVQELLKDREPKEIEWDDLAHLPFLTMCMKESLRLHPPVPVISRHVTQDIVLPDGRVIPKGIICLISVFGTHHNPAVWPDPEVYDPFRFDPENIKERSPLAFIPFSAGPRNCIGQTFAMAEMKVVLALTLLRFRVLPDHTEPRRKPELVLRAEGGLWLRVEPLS

[2] = target: CYP450 (20-HETE formation) (Homo sapiens, UniProt P04798+P05177+P05181+P08684+P10632+P10635+P11509+P11712+P13584+P20813+P20815+P20853+P24462+P24903+P33260+P33261+P51589+P78329+P98187+Q02928+Q08477+Q16678+Q16696+Q5TCH4+Q6VVX0+Q7Z449+Q8TAV3+Q96SQ9+Q9HB55); assay: Inhibition of CYP450 in human liver microsomes assessed as inhibition of 20-HETE formation at 10 uM in presence of arachidonic acid and NADPH by multi-enzyme assay based LC-MS/MS analysis relative to control; format: ADME, Microsome; conditions: probe arachidonic acid
[3] = organism: Homo sapiens; assay: Selectivity index, log ratio of Inhibition of CYP450 in human liver microsomes assessed as inhibition of EpETrE formation in presence of arachidonic acid to Inhibition of CYP450 in human liver microsomes assessed as inhibition of 20-HETE formation in presence of arachidonic acid
[4] = target: CYP450 (EpETrE formation) (Homo sapiens, UniProt P04798+P05177+P05181+P08684+P10632+P10635+P11509+P11712+P13584+P20813+P20815+P20853+P24462+P24903+P33260+P33261+P51589+P78329+P98187+Q02928+Q08477+Q16678+Q16696+Q5TCH4+Q6VVX0+Q7Z449+Q8TAV3+Q96SQ9+Q9HB55); assay: Inhibition of CYP450 in human liver microsomes assessed as inhibition of EpETrE formation at 10 uM in presence of arachidonic acid and NADPH by multi-enzyme assay based LC-MS/MS analysis relative to control; format: ADME, Microsome; conditions: probe arachidonic acid
[5] = Solubility of the compound in phospahte-buffered saline buffer at pH 7.4 by shake flask method; format: physicochemical; conditions: phosphate-buffered saline

Row | Structure (SMILES) | inhibition at 10 µM [2] [%] | log(ratio) [3] | inhibition at 10 µM [4] [%] | solubility thermodynamic [5] [µM] | IC50 [1] [µM]
1 | CC(=O)OC[C@@]12CC[C@@]3(C)[C@H]4C(=CC[C@]3(C)[C@H]1[C@H](O)C[C@H]2C(C)C)[C@@]1(C)CCC(=O)C(C)(C)[C@@H]1C[C@@H]4O [RUBIARBONONE C] |  |  |  |  | 4.2
2 | COc1ccc(-c2cc(=O)c3cc(OC)ccc3o2)cc1 [6,4'-DIMETHOXYFLAVONE] | < 15 | 0 | < 15 |  | 
3 | COc1ccc2oc(-c3ccc(C(F)(F)F)cc3)cc(=O)c2c1 | 55 | 0.59 | < 15 | 1 (≈ 0.32 µg/mL) | 
4 | COc1ccc2oc(-c3ccc(Br)cc3)cc(=O)c2c1 | 17 | 0.16 | < 15 |  | 
5 | COc1ccc(-c2coc3ccccc3c2=O)cc1OC | 27 | 0.22 | < 15 |  | 
6 | O=c1c(-c2ccc(O)cc2)coc2cc(O)cc(O)c12 [GENISTEIN] | 39 | 0.49 | < 15 |  | 
7 | COc1cccc(-c2coc3ccccc3c2=O)c1 | < 15 | 0 | < 15 |  | 
8 | COc1ccc2oc(-c3ccc(OC)c(OC)c3)cc(=O)c2c1 | < 15 | 0.07 | < 15 |  | 
9 | COc1ccccc1-c1coc2ccccc2c1=O | < 15 | -0.15 | < 15 |  | 
10 | COc1cc2oc(-c3ccccc3)cc(=O)c2c(OC)c1OC [BAICALEIN TRIMETHYL ETHER] | < 15 | -0.09 | < 15 |  | 
11 | O=c1cc(-c2ccccc2)oc2cc(O)c(O)c(O)c12 [BAICALEIN] | < 15 | -0.36 | 32 |  | 
12 | O=c1cc(-c2ccc(O)c(O)c2)oc2ccc(O)cc12 | 26 | 0.29 | < 15 |  | 
13 | COc1ccc(-c2cc(=O)c3ccccc3o2)cc1OC [3',4'-DIMETHOXYFLAVONE] | 18 | 0.08 | < 15 |  | 
14 | COc1ccc(-c2coc3ccccc3c2=O)cc1 | < 15 | 0.18 | < 15 |  | 
15 | O=c1c(-c2ccccc2)coc2ccccc12 [ISOFLAVONE] | < 15 | 0.19 | < 15 |  | 
16 | COc1ccccc1-c1cc(=O)c2ccccc2o1 | < 15 | -0.4 | 37 |  | 
17 | COc1cccc(-c2cc(=O)c3cc(OC)ccc3o2)c1 [6,3'-DIMETHOXYFLAVONE] | < 15 | -0.09 | < 15 |  | 
18 | COc1ccc(-c2coc3cc(O)cc(O)c3c2=O)cc1 [BIOCHANIN] | 25 | 0.25 | < 15 |  | 

Now from value to molecule, other results behind:

Row | inhibition at 10 µM [2] [%] | log(ratio) [3] | inhibition at 10 µM [4] [%] | solubility thermodynamic [5] [µM] | Structure (SMILES) | IC50 [1] [µM]
19 | < 15 | 0 | < 15 |  | O=c1cc(-c2ccccc2)oc2ccccc12 [FLAVONE] | 
20 | < 15 | -0.01 | 15 |  | O=c1cc(-c2ccccc2)oc2ccc(O)cc12 [6-HYDROXYFLAVONE] | 
21 | < 15 |  | 35 |  | O=c1cc(-c2ccccc2)oc2cc(O)ccc12 [7-HYDROXYFLAVONE] | 
22 | < 15 |  | 50 |  | COc1ccc2c(=O)cc(-c3ccccc3)oc2c1 [7-METHOXYFLAVONE] | 
23 | 27 | 0.13 | 20 |  | COc1ccc(-c2cc(=O)c3ccccc3o2)cc1 [4'-METHOXYFLAVONE] | 
24 | 32 | 0.07 | 26 |  | Cc1ccc(-c2cc(=O)c3ccccc3o2)cc1 | 
25 | 32 | 0.17 | 19 |  | O=c1cc(-c2ccc(O)c(O)c2)oc2ccccc12 | 
26 | < 15 | 0.05 | < 15 |  | O=c1cc(-c2ccc(O)cc2)oc2ccccc12 | 
27 | < 15 | -0.05 | 16 |  | COc1ccc2oc(-c3ccccc3)cc(=O)c2c1 [6-METHOXYFLAVONE] | 
28 | < 15 | 0 | < 15 |  | O=c1cc(-c2ccc(Br)cc2)oc2ccc(O)cc12 | 
29 | < 15 | -0.29 | 24 |  | O=c1cc(-c2ccccc2O)oc2ccccc12 | 
30 | 35 | 0.4 | < 15 |  | O=c1cc(-c2ccc(Br)cc2)oc2ccccc12 | 
